Experimental data published in patent EP1321467A2, “High affinity inhibitors for target validation and uses thereof” (Princeton University, priority 1999, dated 2000).
Where two headings read alike, the source gives them in different places.

Legend:
[1] = system: GST-XD4; details: read-out: KM for RR-Src; nucleotide saturated
[2] = system: GST-XD4; assay: Kinetics for phosphate donor substrates; format: biochemical; details: RR-Src 1 mM, 37°C, pH 8.0
Method: (§1) Kinetic constants were determined by analysis of Lineweaver-Burk plots of the rate data (64). […]

[3] = molecular target: T1, Cdc28·MBP-C1b2 (Saccharomyces cerevisiae, UniProt P00546); assay: ATP kinetics, Histone H1 phosphorylation; format: biochemical; details: read-out: ATP Kinetics Km; Eadie-Hofstee
T1 construct: His6 (C); made in house; host or cells: Sf9 insect cells, baculovirus, co-infected with Cak1-HA3 (Cdc28-His6); bacteria (MBP-Clb2)
T1 sequence (P00546 whole entry): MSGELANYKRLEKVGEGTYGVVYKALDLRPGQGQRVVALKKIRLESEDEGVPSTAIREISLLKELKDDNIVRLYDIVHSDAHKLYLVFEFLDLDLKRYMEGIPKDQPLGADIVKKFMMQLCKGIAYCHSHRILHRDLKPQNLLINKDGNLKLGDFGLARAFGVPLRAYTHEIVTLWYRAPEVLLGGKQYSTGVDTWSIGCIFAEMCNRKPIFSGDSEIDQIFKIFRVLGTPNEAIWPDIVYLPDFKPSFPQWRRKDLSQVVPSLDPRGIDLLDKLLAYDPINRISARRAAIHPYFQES
T1 sequence (P24869 whole entry partner): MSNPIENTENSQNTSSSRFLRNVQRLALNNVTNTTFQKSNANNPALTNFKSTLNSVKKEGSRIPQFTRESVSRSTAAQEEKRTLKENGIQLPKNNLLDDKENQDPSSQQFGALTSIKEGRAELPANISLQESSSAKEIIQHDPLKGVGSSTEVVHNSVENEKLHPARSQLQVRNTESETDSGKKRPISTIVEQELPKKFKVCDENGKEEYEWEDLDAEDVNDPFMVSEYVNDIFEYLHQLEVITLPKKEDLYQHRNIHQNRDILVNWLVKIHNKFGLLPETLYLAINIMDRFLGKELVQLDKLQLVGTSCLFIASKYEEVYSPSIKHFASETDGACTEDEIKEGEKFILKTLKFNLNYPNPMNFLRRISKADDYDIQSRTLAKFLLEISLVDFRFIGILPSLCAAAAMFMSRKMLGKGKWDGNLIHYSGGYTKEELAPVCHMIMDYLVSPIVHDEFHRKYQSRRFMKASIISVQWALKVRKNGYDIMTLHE

[4] = molecular target: T2, Cdc28-as1·MBP-C1b2 (Saccharomyces cerevisiae, UniProt P00546, F88G); details: Eadie-Hofstee
T2 sequence (P00546 whole entry F88G): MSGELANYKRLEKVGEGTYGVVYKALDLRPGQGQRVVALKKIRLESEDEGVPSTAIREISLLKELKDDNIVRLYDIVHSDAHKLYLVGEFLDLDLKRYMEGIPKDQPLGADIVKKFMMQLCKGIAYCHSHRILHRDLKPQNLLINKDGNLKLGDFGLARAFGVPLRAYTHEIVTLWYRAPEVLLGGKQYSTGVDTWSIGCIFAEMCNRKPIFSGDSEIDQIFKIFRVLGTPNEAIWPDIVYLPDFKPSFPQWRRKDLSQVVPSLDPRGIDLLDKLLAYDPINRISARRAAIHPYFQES
T2 sequence (P24869 whole entry, further chain): as the sequence (P24869 whole entry partner) above

[5] = molecular target: T3, GST-XD4(V323A, I338A) (Rous sarcoma virus subgroup A, UniProt P00524, DEL77-225/I338A/V323A); format: biochemical; details: RR-Src 1 mM, 37°C, pH 8.0
T3 construct: double alanine mutant of the v-Src catalytic domain, (the XD4 fragment) were made as glutathione S-transferase (GST) fusion proteins (GST-XD4); made in house; host or cells: E. coli (DH5a), pGEX-KT
Method: as §1

[6] = system: GST-XD4(V323A, I338A); format: biochemical
Method: as §1

[7] = molecular target: T4, WT Fyn (Homo sapiens, UniProt P06241); assay: In vitro kinase inhibition assay; format: biochemical; details: Table 3
T4 construct: GST (N); made in house; host or cells: E. coli DH5a, pGEX-KT
T4 sequence (P06241 1-534 isoform P06241-2): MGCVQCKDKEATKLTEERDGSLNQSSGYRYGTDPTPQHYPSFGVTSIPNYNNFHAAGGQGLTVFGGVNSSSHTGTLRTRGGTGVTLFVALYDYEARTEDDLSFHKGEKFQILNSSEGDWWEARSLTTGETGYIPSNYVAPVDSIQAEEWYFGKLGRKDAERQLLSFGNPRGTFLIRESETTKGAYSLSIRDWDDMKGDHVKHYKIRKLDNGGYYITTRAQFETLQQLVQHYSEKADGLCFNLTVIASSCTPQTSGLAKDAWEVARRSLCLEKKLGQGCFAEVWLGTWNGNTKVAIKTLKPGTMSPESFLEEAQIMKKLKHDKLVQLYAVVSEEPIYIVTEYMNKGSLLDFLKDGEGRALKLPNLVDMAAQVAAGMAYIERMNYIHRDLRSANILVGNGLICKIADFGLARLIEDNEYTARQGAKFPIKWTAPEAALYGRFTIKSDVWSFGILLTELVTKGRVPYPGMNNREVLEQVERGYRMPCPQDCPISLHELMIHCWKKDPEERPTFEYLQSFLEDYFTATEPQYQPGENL

[8] = system: wild-type cells; assay: Yeast growth; format: cell-based, Saccharomyces cerevisiae; details: 50,000 nM
[9] = molecular target: T1, Cdc28·MBP-C1b2; assay: 1-NM-PP1 IC50, Histone H1 phosphorylation; format: biochemical
Method: (§2) Purification of Cdc28-His6, Cdc28-as1-His6, MBP-Clb2: Lysate was prepared from insect cells co-infected with baculoviruses encoding Cdc28-His6 or Cdc28-as1-His6 and Cak1-HA3 (151). Cdc28-His6 and Cdc28-as1-His6 were purified by metal affinity chromatography as described (152), followed by […]. MBP-Clb2 was purified from lysates of bacteria expressing MBP-Clb2 (a gift of R. Deshaies) on an amylose column (NEBL), followed by anion-exchange chromatography (Pharmacia Q Sepharose Fast Flow).
(§3) Phosphate incorporation was determined at each inhibitor concentration by scintillation counting.

[10] = system: cdc28-as1 cells; assay: Genome-wide transcription, oligonucleotide microarray; format: cell-based, Saccharomyces cerevisiae; details: 500 nM, two hours, asynchronous cells
[11] = molecular target: T5, WT v-Src (Rous sarcoma virus subgroup A, UniProt P00524, DEL77-225); assay: biochemical; format: biochemical
T5 construct: glutathione-S-transferase fusion proteins of wild type v-Src catalytic domain, I338G v-Src SH1, and WT Fyn into the pGEX-KT plasmid; GST (N); made in house; host or cells: E. coli DH5a, pGEX-KT

[12] = system: cdc28-as1 strain; assay: Yeast growth; format: cell-based, Saccharomyces cerevisiae; details: Saccharomyces cerevisiae, read-out: inhibitor concentration at which growth was inhibited 50%
[13] = system: cdc28-as1 cells; assay: Cell cycle analysis, DNA content and morphology; format: cell-based, Saccharomyces cerevisiae; details: 500 nM, cells arrested in late mitosis with cdc15-2
Method: DNA flow cytometry: Approximately 1x10^7 cells for each sample were fixed in 70% ethanol, resuspended in 50 mM Tris-HCl pH 8.0, briefly sonicated, digested with 2mg/ml RNase for 2 hours at 37°C, and resuspended in 0.2 ml protease solution (5 mg/ml pepsin. 0.5% concentrated HC1) and digested for 45 minutes at 37°C. DNA was stained with 1µM Sytox Green (Molecular Probes) in 50 mM Tris-HCl pH 7.5 and 20,000 cells from each sample were scanned with a FACScan FACS machine (Becton-Dickinson).
Thus, it appears possible to titrate the level of Cdc28-as1 activity in vivo, allowing the identification of cell cycle events that are differentially sensitive to decreases in the catalytic activity of Cdc28.
[…], initiation of budding and DNA synthesis were delayed about 30 to 60 minutes, while accumulation of the mitotic cyclin C1b2 was delayed 60 to 90 minutes. Cells went on to arrest with moderate C1b2 levels, highly hyperpolarized buds, and a G2/M DNA content, much like the arrest observed in asynchronous cells. […] Thus, cells treated with low concentrations of the inhibitor are slightly delayed during progression through early stages of the cell cycle, but eventually arrest due to a failure to assemble a mitotic spindle and enter mitosis.

[14] = molecular target: T2, Cdc28-as1·MBP-C1b2; assay: 1-NM-PP1 IC50, Histone H1 phosphorylation; format: biochemical; parameters: His6 (C); made in house; host or cells: Sf9 insect cells, baculovirus, co-infected with Cak1-HA3 (Cdc28-as1-His6); bacteria (MBP-Clb2)
Method: as §2, §3

[15] = molecular target: T6, I338G v-Src (Rous sarcoma virus subgroup A, UniProt P00524, DEL77-225/I338G); assay: biochemical; format: biochemical
T6 construct: catalytic domain of the target kinase, I338G v-Src, which was expressed in bacteria and purified as a glutathione-S-transferase (GST) fusion protein; made in house; host or cells: E. coli DH5a, pGEX-KT

[16] = system: wild-type cells; assay: Genome-wide transcription, oligonucleotide microarray; format: cell-based, Saccharomyces cerevisiae; details: 500 nM, 30 minutes
Method: Changes were deemed significant if they were greater than or equal to 2-fold or if the transcript changed present/absent status (as indicated by Affymetrix software) in the following comparisons: for non-specific drug effects: CDC28 + 1 -NM-PP1 vs CDC28: for cdc28-as1 effects: cdc28-as1 vs. CDC28.
Next, the effects of the inhibitor 1-NM-PP1 on cell growth and morphology were analyzed.

[17] = molecular target: T3, GST-XD4(V323A, I338A); format: biochemical; details: nucleotide saturated; read-out: KM for RR-Src
[18] = system: wild type protein kinase; assay: In vitro kinase reactions with radiolabeled nucleotide in murine lymphocyte lysates; format: biochemical; details: 100 µM, 37°C, 10 min, autoradiogram
Method: For this it is preferably that no wild-type kinase, including ser/thr specific kinase (which carry out the bulk of cellular phosphorylation, as only 0.03% of all phosphoamino acids are tyrosine) (65), substantially accept the synthetic substrate. To establish that [γ-^32P]
These assays were performed in a manner similar to the procedure set forth in Example 2, with the exception of the use of radiolabeled [γ-^32P] […] Proteins were separate by 12.5% SDS-PAGE. The gel was soaked in 10% acetic acid, 10% isopropanol for 1 h. after which it was dried in a gel dryer and exposed to Biomax MS film (Kodak # 111-1681) for 1 h.
The results are shown in Figure 5(b), which is an autoradiogram showing the level of phosphorylation in hypotonically lysed murine lymphocytes with [γ-^32P] […] In principle, the ability to follow one protein kinase's activity in the presence of all other cellular kinase would allow for the identification of the direct kinase targets in a particular cell type by using membrane permeabilization (66) and a cell permeable form of A*TP to introduce [γ-^32P] A*TP into cells (67).

[19] = system: wild-type Fus3 expressing cells; assay: Yeast mating assay for Fus3 function; format: cell-based, Saccharomyces cerevisiae; details: all concentrations up to 50 µM
[20] = system: S. cerevisiae expressing either wild-type Fus3, Fus3-asl, or no Fus3; assay: Non-selective cytotoxicity control, plating of mating cultures on YPD; details: any of the three strains
[21] = system: fus3-as1 strain; assay: Yeast mating assay for Fus3 function; format: cell-based, Saccharomyces cerevisiae
[22] = molecular target: I338A v-Src (Rous sarcoma virus subgroup A, UniProt P00524, I338A); assay: biochemical
[23] = 1-NM-PP1 IC50 @ 10 µM ATP, 10 µM ATP
[24] = 1-NM-PP1 IC50 @ 1 mM ATP, 1 mM ATP

## Nc1ncnc2c1ncn2[C@@H]1O[C@H](COP(=O)(O)OP(=O)(O)OP(=O)(O)O)[C@@H](O)[C@H]1O [ATP, adenosine triphosphate]
[1]
  Km: 2600 ± 900 µM
[2]
  Km: 12 ± 3 µM
[3]
  Km: 35 µM
[4]
  ATP Kinetics kcat: 0.355 s⁻¹
[4]; read-out: ATP Kinetics Km
  Km: 322 µM
[5]
  Km: 150 ± 20 µM
  kcat: 0.013 ± 0.0033 s⁻¹
[6]; mutant versus GST-XD4
  KM of the mutant higher than the KM of GST-XD4: more than 10 fold

## CC(C)(C)n1nc(Cc2cccc3ccccc23)c2c(N)ncnc21 [Compound 6h, 4-amino-1-(tert-butyl)-3-(1'-naphthylmethyl)pyrazolo[3,4-d]pyrimidine]
[7]
  IC50: 1100 nM
[8]
  increase of doubling times: about 2 fold
[9]; 1 mM ATP, text b306, read-out: IC50
  IC50: 44000 nM
[9]; [23]
  IC50: 22000 nM
[9]; [24]
  IC50: 44000 nM
[10]
  genes with […] or greater changes in transcription: 104 genes
[11]
  IC50: 28000 nM
[12]
  IC50: 50 to 100 nM
[13]
  time to cyclin destruction and rebudding: < 60 min
[14]; 1 mM ATP
  Cdc28-as1 more sensitive than wild-type Cdc28: about 15,000 fold
[14]; [23]
  IC50: 2 nM
[14]; [24]
  IC50: 2.9 nM
[14]; IC50, 1 mM ATP, text b306
  IC50: ~3 nM
[15]
  IC50: 4.2 nM
[16]
  genes with transcription changed greater than two-fold: 6 genes

## O=P(O)(O)OP(=O)(O)OP(=O)(O)OC[C@H]1O[C@@H](n2cnc3c(NC4CCCC4)ncnc32)[C@H](O)[C@@H]1O [ATP analog 8, N^6(cyclopentyl)ATP]
[17]
  Km: 2100 ± 900 µM
[18]
  radiolabeled phosphoproteins in the cell lysate: no radiolabeled phosphoproteins
[5]
  Km: 15 ± 3 µM
[6]; mutant with analog versus wild type with ATP
  kcat/KM lower than the kcat/KM of the wild-type kinase with ATP: 50 fold

## CC(C)(C)n1nc(-c2cccc3ccccc23)c2c(N)ncnc21 [Compound 10]
[19]
  diploid colonies: 0.6-1.1 x 10^5 cfu/ml
[20]
  cfu/mL on YPD plates: No significant decrease in cfu/mL on YPD plates
[21]; 500 nM
  decrease from equivalent control cells: 44 fold
  diploid colonies: 1.7x10^3 cfu/ml
[21]; 50 µM
  amount of diploids formed: indistinguishable from a fus3Δ strain
[22]
  IC50: 1 nM
